Reference: paper PMC4491109, “Synthesis and anticonvulsant activity of new N-phenyl-2-(4-phenylpiperazin-1-yl)acetamide derivatives” (Medicinal Chemistry Research, 2015)
Read-outs that look alike come from different tables or passages of the source.

Columns and labels:
Assay type in all cases: in vivo
[1] = test system: maximal electroshock (MES) seizures; test: Maximal electroshock (MES) test, i.p. administration in mice; conditions: Mus musculus, ip, doses of 30, 100 or 300 mg/kg
Protocol: (§1) Considering the aforementioned facts, the profile of anticonvulsant activity of final compounds 3–24 was established in the MES and scPTZ tests, after intraperitoneal (i.p.) injection in mice at doses of 30, 100 and 300 mg/kg. An observation was carried out at two different time intervals—0.5 and 4 h. Furthermore, in addition to the primary anticonvulsant screening, the acute neurological toxicity (NT) was determined in mice by the rotarod test.
(§2) Compounds 3–24 were pharmacologically preevaluated within the Antiepileptic Drug Development (ADD) Program in Epilepsy Branch, Neurological Disorders Program, National Institute of the Neurological and Communicative Disorders and Stroke (NIH/NINDS), Rockville, MD, USA, by using procedures described elsewhere (Krall et al., [1978]; Kupferberg, [1989]).
(§3) Phase I of the in vivo studies involved three tests: MES, scPTZ and rotarod test for NT. Male albino mice (CF#1 strain, weighing 18–25 g) and male albino rats (Sprague–Dawley) were used as experimental animals. The animals were housed in metabolic cages and allowed free access to food and water. The compounds were injected intraperitoneally to mice as a suspension in 0.5 % methylcellulose/water mixture at a dose level 30, 100 or 300 mg/kg with anticonvulsant activity and neurotoxicity assessment at 0.5 and 4 h after administration. Promising derivatives from phase I underwent phase VIa in which they were administrated orally into rats at a fixed dose of 30 mg/kg for both MES and the rotarod toxicity determination at five pretreatment times: 0.25, 0.5, 1, 2, 4 h. Groups of eight mice or four rats are employed.
In the MES screen, an electrical stimulus of 0.2 s in duration (50 mA in mice and 150 mA in rats) is delivered via corneal electrodes primed with an electrolyte solution containing an anesthetic agent. The endpoint is the tonic extension of the hind limbs. In the control groups, the procedures cause immediate hind limb tonic extension. Mice not displaying hind limb tonic extension are considered to be protected from seizures.

[2] = test system: pentylenetetrazole-induced seizures; test: Subcutaneous pentylenetetrazole (scPTZ) test, i.p. administration in mice; conditions: Mus musculus, ip, doses of 30, 100 or 300 mg/kg
Protocol: as §1, §2, §3
The scPTZ test utilizes a dose of pentylenetetrazole (85 mg/kg in mice) that produces clonic seizures lasting for a period of at least 5 s in 97 % (CD97) of animals tested. PTZ is administered 0.5 and 4 h after injections of tested compounds, and observation is carried out for 30 min. In the control groups, the first episode of clonic convulsions is observed between 6 and 15 min of observation. The absence of clonic convulsions in the observed time period of […] is interpreted as the compound’s ability to protect against PTZ-induced seizures.

mice (rotarod test) = test: Neurotoxicity screening (NT), rotarod test, i.p. administration in mice; conditions: for dose showing neurotoxicity in the rotarod test (NT): ip
Protocol: as §1, §3
The neurological toxicity test (NT) induced by a compound was detected in mice or rats using standardized rotarod test (Dunham and Miya, [1957]). Untreated control mice or rats, when placed on the rod, can maintained their equilibrium for a prolonged time period.

[3] = test system: 6-Hz psychomotor seizures; test: Psychomotor seizure test (6-Hz), i.p. in mice; conditions: 100 mg/kg
From the text: In the next step of pharmacological investigations, four compounds 12, 19, 20 and 24 were chosen for the evaluation of anticonvulsant activity in the psychomotor 6-Hz test (Table 4). The selection was made randomly as a part of the search of molecules providing anti-6-Hz protection among chemically diversified compounds pursued in the NIH/NINDS. It should be noticed that 6-Hz screen has been validated as a model of therapy-resistant epilepsy (Barton et al., [2001]).
The 6-Hz model is an alternative electroshock paradigm that uses low-frequency (6 Hz), long-duration (3 s) electrical stimulation. Corneal stimulation (0.2 ms duration monopolar rectangular pulses at 6-Hz for 3 s) was delivered by a constant-current device. During the stimulation, mice were manually restrained and released into the observation cage immediately after the current application. The seizures manifest in “stunned” posture associated with rearing, forelimb, automatic movements and clonus, twitching the vibrissae and Straub–tail. The duration of the seizure activity ranges from 60 to 120 s in untreated animals. At the end of the seizure, animals resume their normal exploratory behavior. The experimental end point is protection against the seizure. The animal is considered to be protected if it resumes its normal exploratory behavior within 10 s from the stimulation (Brown et al., [1953]).

[4] = 0.5 h, read-out: MES, minimum dose effective in half or more animals tested, 0.5 h
[5] = 4 h, read-out: MES, minimum dose effective in half or more animals tested, 4 h
[6] = 0.5 h, read-out: scPTZ, minimum dose effective in half or more animals tested, 0.5 h
[7] = 4 h, read-out: scPTZ, minimum dose effective in half or more animals tested, 4 h

SMILES	minimal effective dose [1, 4] [mg/kg]	minimal effective dose [1, 5] [mg/kg]	minimal effective dose [2, 6] [mg/kg]	minimal effective dose [2, 7] [mg/kg]	also measured
Cl.O=C(CN1CCN(c2ccccc2)CC1)Nc1cccc(Cl)c1 [Compound 3, N-(3-chlorophenyl)-2-(4-phenylpiperazin-1-yl)acetamide monohydrochloride]	> 300	> 300	> 300	> 300	–
Cl.O=C(CN1CCN(c2ccccc2Cl)CC1)Nc1cccc(Cl)c1 [Compound 4, N-(3-chlorophenyl)-2-[4-(2-chlorophenyl)piperazin-1-yl]acetamide monohydrochloride]	> 300	> 300	> 300	> 300	–
Cl.O=C(CN1CCN(c2ccc(Cl)cc2)CC1)Nc1cccc(Cl)c1 [Compound 5, N-(3-chlorophenyl)-2-[4-(4-chlorophenyl)piperazin-1-yl]acetamide monohydrochloride]	> 300	> 300	> 300	> 300	–
Cl.O=C(CN1CCN(c2cccc(Cl)c2Cl)CC1)Nc1cccc(Cl)c1 [Compound 6, N-(3-chlorophenyl)-2-[4-(2,3-dichlorophenyl)piperazin-1-yl]acetamide monohydrochloride]	> 300	> 300	> 300	> 300	–
Cl.O=C(CN1CCN(c2ccccc2F)CC1)Nc1cccc(Cl)c1 [Compound 7, N-(3-chlorophenyl)-2-[4-(2-fluorophenyl)piperazin-1-yl]acetamide monohydrochloride]	> 300	> 300	> 300	> 300	–
Cl.O=C(CN1CCN(c2ccc(F)cc2)CC1)Nc1cccc(Cl)c1 [Compound 8, N-(3-chlorophenyl)-2-[4-(4-fluorophenyl)piperazin-1-yl]acetamide monohydrochloride]	> 300	> 300	> 300	> 300	–
Cl.O=C(CN1CCN(c2cccc(C(F)(F)F)c2)CC1)Nc1cccc(Cl)c1 [Compound 9, N-(3-chlorophenyl)-2-[4-[3-(trifluoromethyl)phenyl]piperazin-1-yl]acetamide monohydrochloride]	> 300	> 300	> 300	> 300	–
Cl.O=C(CN1CCN(c2ncccn2)CC1)Nc1cccc(Cl)c1 [Compound 10, N-(3-chlorophenyl)-2-(4-pyrimidin-2-ylpiperazin-1-yl)acetamide monohydrochloride]	> 300	> 300	> 300	> 300	–
Cl.Cl.O=C(CN1CCN(Cc2ccccc2)CC1)Nc1cccc(Cl)c1 [Compound 11, 2-(4-Benzylpiperazin-1-yl)-N-(3-chlorophenyl)acetamide dihydrochloride]	> 300	> 300	> 300	> 300	NT (rotarod), minimum dose neurotoxic in half or more animals tested, 0.5 h (mice (rotarod test); male, CF#1, mouse, in vivo): 300 mg/kg; dose showing neurotoxicity in the rotarod test (NT) (mice (rotarod test); male, CF#1, mouse, in vivo): 300 mg/kg
CN1CCN(CC(=O)Nc2cccc(Cl)c2)CC1.Cl.Cl [Compound 12, N-(3-chlorophenyl)-2-(4-methylpiperazin-1-yl)acetamide dihydrochloride]	100	> 300	> 300	> 300	6-Hz, % of animals protected, 0.25 h ([3]; 0.25 h): 75%; 6-Hz, % of animals protected, 0.5 h ([3]; 0.5 h): 75%; 6-Hz, number of mice protected/number of mice tested, 0.25 h ([3]; current 32 mA, 0.25 h): 3/4; 6-Hz, number of mice protected/number of mice tested, 0.5 h ([3]; current 32 mA, 0.5 h): 3/4; 6-Hz, number of mice protected/number of mice tested, 1 h ([3]; current 32 mA, 1 h): 0/4; 6-Hz, number of mice protected/number of mice tested, 2 h ([3]; current 32 mA, 2 h): 0/4; 6-Hz, number of mice protected/number of mice tested, 4 h ([3]; current 32 mA, 4 h): 0/4
O=C(CN1CCN(c2ccccc2)CC1)Nc1cccc(C(F)(F)F)c1 [Compound 14, 2-(4-Phenylpiperazin-1-yl)-N-[3-(trifluoromethyl)phenyl]acetamide]	> 300	100	> 300	> 300	NT (rotarod), minimum dose neurotoxic in half or more animals tested, 0.5 h (mice (rotarod test); male, CF#1, mouse, in vivo): 300^Z mg/kg; NT (rotarod), minimum dose neurotoxic in half or more animals tested, 4 h (mice (rotarod test); male, CF#1, mouse, in vivo, 4 h): 300 mg/kg; dose showing neurotoxicity in the rotarod test (NT) (mice (rotarod test); male, CF#1, mouse, in vivo): 300 mg/kg; response comment (adverse sign observed) (mice (rotarod test); mice, i.p., 300 mg/kg): respiratory depression
Cl.O=C(CN1CCN(c2ccccc2Cl)CC1)Nc1cccc(C(F)(F)F)c1 [Compound 15, 2-[4-(2-Chlorophenyl)piperazin-1-yl]-N-[3-(trifluoromethyl)phenyl]acetamide monohydrochloride]	> 300	> 300	> 300	> 300	–
O=C(CN1CCN(c2ccc(Cl)cc2)CC1)Nc1cccc(C(F)(F)F)c1 [Compound 16, 2-[4-(4-Chlorophenyl)piperazin-1-yl]-N-[3-(trifluoromethyl)phenyl]acetamide]	> 300	100	> 300	> 300	–
O=C(CN1CCN(c2cccc(Cl)c2Cl)CC1)Nc1cccc(C(F)(F)F)c1 [Compound 17, 2-[4-(2,3-Dichlorophenyl)piperazin-1-yl]-N-[3-(trifluoromethyl)phenyl]acetamide]	> 300	> 300	> 300	> 300	–
Cl.O=C(CN1CCN(c2ccccc2F)CC1)Nc1cccc(C(F)(F)F)c1 [Compound 18, 2-[4-(2-Fluorophenyl)piperazin-1-yl]-N-[3-(trifluoromethyl)phenyl]acetamide monohydrochloride]	> 300	100	> 300	> 300	–
Cl.O=C(CN1CCN(c2ncccn2)CC1)Nc1cccc(C(F)(F)F)c1 [Compound 21, 2-(4-Pyrimidin-2-ylpiperazin-1-yl)-N-[3-(trifluoromethyl)phenyl]acetamide monohydrochloride]	> 300	> 300	> 300	> 300	NT (rotarod), minimum dose neurotoxic in half or more animals tested, 0.5 h (mice (rotarod test); male, CF#1, mouse, in vivo): 300 mg/kg
Cl.Cl.O=C(CN1CCN(CCO)CC1)Nc1cccc(C(F)(F)F)c1 [Compound 23, 2-[4-(2-Hydroxyethyl)piperazin-1-yl]-N-[3-(trifluoromethyl)phenyl]acetamide dihydrochloride]	300	300	> 300	> 300	NT (rotarod), minimum dose neurotoxic in half or more animals tested, 0.5 h (mice (rotarod test); male, CF#1, mouse, in vivo): 300 mg/kg
